From ChEMBL document CHEMBL1641539 (Bioorg Med Chem Lett, 2011)

Tests used:
[1] = biological target: RAC-gamma serine/threonine-protein kinase (Homo sapiens) (UniProt Q9Y243); experiment: Inhibition of human PKBgamma at 10 uM after 60 mins by TR-FRET assay; values are per cent of control
[2] = tested on: Mast/stem cell growth factor receptor Kit (Homo sapiens), P10721 [V560G]; experiment: Inhibition of human c-Kit V560G mutant at 10 uM after 60 mins by TR-FRET assay; values are per cent of control
[3] = biological target: Rho-associated protein kinase 2 (Rattus norvegicus) (UniProt Q62868); experiment: Inhibition of rat ROCK-2 at 10 uM after 60 mins by TR-FRET assay; values are per cent of control
[4] = biological target: 3-phosphoinositide-dependent protein kinase 1 (Homo sapiens) (UniProt O15530); experiment: Inhibition of human PDK1 at 10 uM after 60 mins by TR-FRET assay; values are per cent of control
Sequence of 3-phosphoinositide-dependent protein kinase 1 (Homo sapiens) (O15530 whole entry): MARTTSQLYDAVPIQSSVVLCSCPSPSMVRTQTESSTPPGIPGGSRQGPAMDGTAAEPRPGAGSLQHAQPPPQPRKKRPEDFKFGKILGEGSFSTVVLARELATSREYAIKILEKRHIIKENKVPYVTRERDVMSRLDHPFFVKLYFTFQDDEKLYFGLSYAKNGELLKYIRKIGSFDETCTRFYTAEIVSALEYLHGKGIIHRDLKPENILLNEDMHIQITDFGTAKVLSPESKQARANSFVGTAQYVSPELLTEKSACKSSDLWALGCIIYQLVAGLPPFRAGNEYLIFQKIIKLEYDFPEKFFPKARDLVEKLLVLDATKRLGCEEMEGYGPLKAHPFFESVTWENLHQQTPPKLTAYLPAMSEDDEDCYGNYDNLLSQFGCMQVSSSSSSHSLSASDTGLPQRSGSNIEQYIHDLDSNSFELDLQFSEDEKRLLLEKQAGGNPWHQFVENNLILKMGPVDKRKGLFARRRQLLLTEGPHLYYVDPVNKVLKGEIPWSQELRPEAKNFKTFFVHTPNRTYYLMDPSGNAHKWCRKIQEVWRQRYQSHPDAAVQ

[5] = biological target: Tyrosine-protein kinase ZAP-70 (Homo sapiens) (UniProt P43403); experiment: Inhibition of human ZAP-70 at 10 uM after 60 mins by TR-FRET assay; values are per cent of control
[6] = biological target: Serine/threonine-protein kinase 24 (Homo sapiens) (UniProt Q9Y6E0); experiment: Inhibition of human MST3 at 10 uM after 60 mins by TR-FRET assay; details: values are per cent of control
[7] = biological target: Calcium/calmodulin-dependent protein kinase type 1 (Homo sapiens) (UniProt Q14012); experiment: Inhibition of human CaMK1 at 10 uM after 60 mins by TR-FRET assay; values are per cent of control
[8] = biological target: Homeodomain-interacting protein kinase 3 (Homo sapiens) (UniProt Q9H422); experiment: Inhibition of human HIPK3 at 10 uM after 60 mins by TR-FRET assay; values are per cent of control
Rattus norvegicus = species: Rattus norvegicus; experiment: Inhibition of rat AMPK at 10 uM after 60 mins by TR-FRET assay; values are per cent of control
[9] = biological target: Ribosomal protein S6 kinase alpha-2 (Homo sapiens) (UniProt Q15349); experiment: Inhibition of human Rsk3 at 10 uM after 60 mins by TR-FRET assay; details: values are per cent of control
[10] = biological target: Dual specificity mitogen-activated protein kinase kinase 6 (Homo sapiens) (UniProt P52564); experiment: Inhibition of human MKK6 at 10 uM after 60 mins by TR-FRET assay; values are per cent of control
[11] = biological target: Tyrosine-protein kinase ABL1 (Mus musculus) (UniProt P00520); experiment: Inhibition of mouse Abl at 10 uM after 60 mins by TR-FRET assay; values are per cent of control
[12] = tested on: Serine/threonine-protein kinase Chk2 (Homo sapiens), O96017 [I157T]; experiment: Inhibition of human CHK2 I157T mutant at 10 uM after 60 mins by TR-FRET assay; values are per cent of control
[13] = biological target: Calcium/calmodulin-dependent protein kinase type IV (Homo sapiens) (UniProt Q16566); experiment: Inhibition of human CaMK4 at 10 uM after 60 mins by TR-FRET assay; values are per cent of control
[14] = biological target: G protein-coupled receptor kinase 5 (Homo sapiens) (UniProt P34947); experiment: Inhibition of human GRK5 at 10 uM after 60 mins by TR-FRET assay; values are per cent of control
[15] = biological target: Serine/threonine-protein kinase Chk2 (Homo sapiens) (UniProt O96017); experiment: Inhibition of human CHK2 at 10 uM after 60 mins by TR-FRET assay; values are per cent of control
[16] = tested on: Mast/stem cell growth factor receptor Kit (Homo sapiens), P10721 [V654A]; experiment: Inhibition of human c-Kit V654A mutant at 10 uM after 60 mins by TR-FRET assay; values are per cent of control
[17] = biological target: Proto-oncogene tyrosine-protein kinase Src (Homo sapiens) (UniProt P12931); experiment: Inhibition of human Src (1 to 530) at 10 uM after 60 mins by TR-FRET assay; values are per cent of control
[18] = biological target: Tyrosine-protein kinase Lyn (Homo sapiens) (UniProt P07948); experiment: Inhibition of human Lyn at 10 uM after 60 mins by TR-FRET assay; details: values are per cent of control
Sequence of Tyrosine-protein kinase Lyn (Homo sapiens) (P07948 2-512 limits assumed): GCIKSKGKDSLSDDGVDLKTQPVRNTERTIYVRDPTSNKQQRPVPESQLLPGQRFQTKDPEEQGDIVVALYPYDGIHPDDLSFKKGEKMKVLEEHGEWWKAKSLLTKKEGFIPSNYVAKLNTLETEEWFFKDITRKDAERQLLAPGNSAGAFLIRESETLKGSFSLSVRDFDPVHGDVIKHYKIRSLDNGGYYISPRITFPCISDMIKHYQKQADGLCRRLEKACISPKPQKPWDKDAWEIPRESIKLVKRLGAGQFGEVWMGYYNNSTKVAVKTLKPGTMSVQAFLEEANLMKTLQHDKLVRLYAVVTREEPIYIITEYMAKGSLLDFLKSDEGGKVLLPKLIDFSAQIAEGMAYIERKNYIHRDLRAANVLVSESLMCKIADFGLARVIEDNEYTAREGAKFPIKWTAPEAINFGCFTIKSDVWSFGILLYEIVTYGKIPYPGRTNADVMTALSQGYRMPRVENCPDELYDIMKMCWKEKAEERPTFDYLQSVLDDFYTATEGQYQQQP

[19] = biological target: Testis-specific serine/threonine-protein kinase 2 (Homo sapiens) (UniProt Q96PF2); experiment: Inhibition of human TSSK2 at 10 uM after 60 mins by TR-FRET assay; values are per cent of control
[20] = biological target: Tyrosine-protein kinase CSK (Homo sapiens) (UniProt P41240); experiment: Inhibition of human CSK at 10 uM after 60 mins by TR-FRET assay; values are per cent of control
Sequence of Tyrosine-protein kinase CSK (Homo sapiens) (P41240 2-450 limits assumed): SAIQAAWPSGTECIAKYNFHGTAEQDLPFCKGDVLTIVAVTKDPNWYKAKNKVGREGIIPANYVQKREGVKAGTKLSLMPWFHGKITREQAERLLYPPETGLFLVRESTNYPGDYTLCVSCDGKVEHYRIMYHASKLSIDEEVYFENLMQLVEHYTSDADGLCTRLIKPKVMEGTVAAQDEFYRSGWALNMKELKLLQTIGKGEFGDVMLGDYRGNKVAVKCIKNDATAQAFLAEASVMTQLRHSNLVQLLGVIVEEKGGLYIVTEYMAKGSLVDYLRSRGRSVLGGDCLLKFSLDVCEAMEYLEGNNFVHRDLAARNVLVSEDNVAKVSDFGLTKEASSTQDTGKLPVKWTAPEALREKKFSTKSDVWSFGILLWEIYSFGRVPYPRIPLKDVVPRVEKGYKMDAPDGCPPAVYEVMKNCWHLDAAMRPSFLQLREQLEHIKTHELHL

[21] = biological target: Vascular endothelial growth factor receptor 1 (Homo sapiens) (UniProt P17948); experiment: Inhibition of human Flt1 at 10 uM after 60 mins by TR-FRET assay; details: values are per cent of control
Sequence of Vascular endothelial growth factor receptor 1 (Homo sapiens) (P17948 whole entry): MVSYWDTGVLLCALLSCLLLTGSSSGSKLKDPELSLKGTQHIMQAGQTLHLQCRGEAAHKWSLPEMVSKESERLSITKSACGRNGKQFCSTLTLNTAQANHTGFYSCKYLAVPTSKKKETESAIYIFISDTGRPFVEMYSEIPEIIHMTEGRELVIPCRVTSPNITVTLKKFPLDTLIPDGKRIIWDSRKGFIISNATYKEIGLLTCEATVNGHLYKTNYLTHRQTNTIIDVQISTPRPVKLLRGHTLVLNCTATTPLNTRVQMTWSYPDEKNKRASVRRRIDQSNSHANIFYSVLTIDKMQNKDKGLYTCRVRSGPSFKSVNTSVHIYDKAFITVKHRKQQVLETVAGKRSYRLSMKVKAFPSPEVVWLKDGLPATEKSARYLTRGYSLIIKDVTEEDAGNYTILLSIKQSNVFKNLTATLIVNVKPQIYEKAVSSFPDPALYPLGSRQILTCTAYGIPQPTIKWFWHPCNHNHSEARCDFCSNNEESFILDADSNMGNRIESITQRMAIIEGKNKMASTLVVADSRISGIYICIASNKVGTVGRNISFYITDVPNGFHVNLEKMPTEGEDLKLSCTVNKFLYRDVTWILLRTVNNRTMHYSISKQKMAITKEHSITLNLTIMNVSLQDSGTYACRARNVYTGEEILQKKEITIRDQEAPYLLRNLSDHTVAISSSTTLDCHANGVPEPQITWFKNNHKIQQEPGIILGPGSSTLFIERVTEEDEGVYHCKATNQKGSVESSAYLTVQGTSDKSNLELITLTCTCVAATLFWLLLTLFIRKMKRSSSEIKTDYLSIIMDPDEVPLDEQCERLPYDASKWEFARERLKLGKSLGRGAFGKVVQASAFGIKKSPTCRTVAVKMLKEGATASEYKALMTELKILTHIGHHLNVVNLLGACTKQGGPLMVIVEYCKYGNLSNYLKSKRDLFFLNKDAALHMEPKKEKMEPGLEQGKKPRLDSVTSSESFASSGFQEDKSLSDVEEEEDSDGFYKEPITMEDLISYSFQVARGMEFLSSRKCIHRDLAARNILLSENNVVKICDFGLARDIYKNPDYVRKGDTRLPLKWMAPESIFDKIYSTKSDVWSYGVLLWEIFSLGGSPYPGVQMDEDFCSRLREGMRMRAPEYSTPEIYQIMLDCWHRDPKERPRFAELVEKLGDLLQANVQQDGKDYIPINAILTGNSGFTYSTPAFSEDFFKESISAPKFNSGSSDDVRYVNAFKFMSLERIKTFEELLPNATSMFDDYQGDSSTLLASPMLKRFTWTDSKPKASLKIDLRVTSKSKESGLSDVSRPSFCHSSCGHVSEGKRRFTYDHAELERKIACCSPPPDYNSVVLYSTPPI

[22] = biological target: Protein kinase C zeta type (Homo sapiens) (UniProt Q05513); experiment: Inhibition of human PKCzeta at 10 uM after 60 mins by TR-FRET assay; values are per cent of control
[23] = biological target: Testis-specific serine/threonine-protein kinase 1 (Homo sapiens) (UniProt Q9BXA7); experiment: Inhibition of human TSSK1 at 10 uM after 60 mins by TR-FRET assay; values are per cent of control
Sequence of Testis-specific serine/threonine-protein kinase 1 (Homo sapiens) (Q9BXA7 whole entry): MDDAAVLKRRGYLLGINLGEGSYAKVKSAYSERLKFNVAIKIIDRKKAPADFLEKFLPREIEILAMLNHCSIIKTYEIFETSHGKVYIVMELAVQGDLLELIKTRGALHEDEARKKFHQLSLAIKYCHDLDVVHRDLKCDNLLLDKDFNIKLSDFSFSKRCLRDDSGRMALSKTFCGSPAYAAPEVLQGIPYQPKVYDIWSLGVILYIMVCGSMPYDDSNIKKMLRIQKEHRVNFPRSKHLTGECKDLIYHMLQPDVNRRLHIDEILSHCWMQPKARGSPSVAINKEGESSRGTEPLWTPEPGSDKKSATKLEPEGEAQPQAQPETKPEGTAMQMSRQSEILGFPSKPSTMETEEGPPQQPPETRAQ

[24] = biological target: Ephrin type-A receptor 5 (Homo sapiens) (UniProt P54756); experiment: Inhibition of human EphA5 at 10 uM after 60 mins by TR-FRET assay; details: values are per cent of control
[25] = biological target: Serine/threonine-protein kinase MRCK alpha (Homo sapiens) (UniProt Q5VT25); experiment: Inhibition of human MRCKalpha at 10 uM after 60 mins by TR-FRET assay; values are per cent of control
Sequence of Serine/threonine-protein kinase MRCK alpha (Homo sapiens) (Q5VT25 whole entry): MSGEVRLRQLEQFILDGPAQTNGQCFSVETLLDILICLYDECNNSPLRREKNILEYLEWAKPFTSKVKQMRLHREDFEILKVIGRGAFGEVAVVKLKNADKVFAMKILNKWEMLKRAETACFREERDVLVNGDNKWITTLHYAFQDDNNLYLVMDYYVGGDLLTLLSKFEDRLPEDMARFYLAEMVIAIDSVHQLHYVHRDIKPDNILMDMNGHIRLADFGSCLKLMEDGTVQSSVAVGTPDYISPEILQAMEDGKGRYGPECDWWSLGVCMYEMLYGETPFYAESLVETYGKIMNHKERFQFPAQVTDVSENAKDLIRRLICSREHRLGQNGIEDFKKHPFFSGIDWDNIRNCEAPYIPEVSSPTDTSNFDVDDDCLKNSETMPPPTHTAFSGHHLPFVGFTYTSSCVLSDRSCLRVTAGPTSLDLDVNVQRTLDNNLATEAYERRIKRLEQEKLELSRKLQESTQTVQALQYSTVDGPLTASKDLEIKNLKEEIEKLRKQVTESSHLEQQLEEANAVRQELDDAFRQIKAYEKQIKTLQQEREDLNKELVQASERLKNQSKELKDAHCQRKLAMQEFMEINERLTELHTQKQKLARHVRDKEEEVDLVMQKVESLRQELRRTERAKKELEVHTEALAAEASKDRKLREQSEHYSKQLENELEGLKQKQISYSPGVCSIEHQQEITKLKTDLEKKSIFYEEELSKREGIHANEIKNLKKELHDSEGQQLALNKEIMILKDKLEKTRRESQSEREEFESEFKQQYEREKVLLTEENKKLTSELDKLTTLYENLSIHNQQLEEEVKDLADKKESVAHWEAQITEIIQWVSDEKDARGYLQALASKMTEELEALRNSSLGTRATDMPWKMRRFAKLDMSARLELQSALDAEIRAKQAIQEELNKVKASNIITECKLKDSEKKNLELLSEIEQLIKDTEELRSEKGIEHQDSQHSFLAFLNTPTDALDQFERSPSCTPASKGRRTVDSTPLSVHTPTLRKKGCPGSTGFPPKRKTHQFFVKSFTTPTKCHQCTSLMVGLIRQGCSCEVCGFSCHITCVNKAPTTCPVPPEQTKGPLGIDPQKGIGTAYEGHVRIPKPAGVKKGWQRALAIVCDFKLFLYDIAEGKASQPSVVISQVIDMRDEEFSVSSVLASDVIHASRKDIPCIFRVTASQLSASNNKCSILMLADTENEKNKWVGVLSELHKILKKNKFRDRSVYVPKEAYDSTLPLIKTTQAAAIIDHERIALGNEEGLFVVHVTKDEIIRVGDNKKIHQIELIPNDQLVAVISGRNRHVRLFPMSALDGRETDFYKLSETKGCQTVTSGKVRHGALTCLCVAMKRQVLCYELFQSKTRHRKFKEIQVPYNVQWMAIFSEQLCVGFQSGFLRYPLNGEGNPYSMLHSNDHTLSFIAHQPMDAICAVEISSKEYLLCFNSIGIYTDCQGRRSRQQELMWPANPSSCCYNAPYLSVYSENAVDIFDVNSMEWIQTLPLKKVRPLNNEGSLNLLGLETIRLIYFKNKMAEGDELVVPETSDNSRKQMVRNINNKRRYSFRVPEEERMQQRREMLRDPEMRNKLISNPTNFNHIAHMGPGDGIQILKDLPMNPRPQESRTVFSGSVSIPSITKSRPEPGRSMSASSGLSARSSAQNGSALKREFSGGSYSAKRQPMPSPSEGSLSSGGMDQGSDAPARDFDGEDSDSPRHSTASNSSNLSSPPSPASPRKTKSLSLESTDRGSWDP

[26] = biological target: Serine/threonine-protein kinase mTOR (Homo sapiens) (UniProt P42345); experiment: Inhibition of human mTOR at 10 uM after 60 mins by TR-FRET assay; details: values are per cent of control
[27] = biological target: Cyclin-dependent kinase 7/ cyclin H (Homo sapiens) (UniProt P51946+P50613); experiment: Inhibition of human CDK7/cyclinH/MAT1 at 10 uM after 60 mins by TR-FRET assay; values are per cent of control
[28] = biological target: Tyrosine-protein kinase Lck (Homo sapiens) (UniProt P06239); experiment: Inhibition of human Lck at 10 uM after 60 mins by TR-FRET assay; details: values are per cent of control

For `S=c1[nH]nc(-c2ccncc2)n1-c1ccc2ccccc2c1`, which residual activity [1] is on record?
Its residual activity is 110%.

And the residual activity [2]?
Its residual activity is 102%.

What about the residual activity [3] of the same molecule?
Its residual activity is 101%.

And the residual activity [4]?
Its residual activity is 108%.

And the residual activity [5]?
The residual activity was 100%.

And the residual activity [6]?
Its residual activity is 111%.

What about the residual activity [7] of the same molecule?
Its residual activity is 105%.

And the residual activity [8]?
The residual activity was 109%.

What about the residual activity (Rattus norvegicus) of the same molecule?
Its residual activity is 108%.

And the residual activity [9]?
Its residual activity is 90%.

What about the residual activity [10] of the same molecule?
Its residual activity is 85%.

And the residual activity [11]?
Its residual activity is 94%.

And the residual activity [12]?
Its residual activity is 108%.

And the residual activity [13]?
Its residual activity is 112%.

And the residual activity [14]?
The residual activity was 115%.

And the residual activity [15]?
The residual activity was 116%.

And the residual activity [16]?
Its residual activity is 112%.

What about the residual activity [17] of the same molecule?
Its residual activity is 106%.

What about the residual activity [18] of the same molecule?
Its residual activity is 102%.

What about the residual activity [19] of the same molecule?
The residual activity was 107%.

And the residual activity [20]?
Its residual activity is 100%.

What about the residual activity [21] of the same molecule?
The residual activity was 107%.

What about the residual activity [22] of the same molecule?
The residual activity was 115%.

And the residual activity [23]?
Its residual activity is 111%.

What about the residual activity [24] of the same molecule?
The residual activity was 110%.

What about the residual activity [25] of the same molecule?
The residual activity was 105%.

What about the residual activity [26] of the same molecule?
The residual activity was 98%.

What about the residual activity [27] of the same molecule?
Its residual activity is 113%.

And the residual activity [28]?
The residual activity was 76%.
